Reference: US10180423B2, “Micropillar arrays for assaying myelination” (The Regents of the University of California, priority 2012, dated 2019)
Counter-ions that a name gives are not always drawn. Like-named read-outs stand apart in the source and are kept apart here.

Legend:
[1] = test system: oligodendrocyte precursor cells (OPCs); settings: for number of red "myelin rings" generated by oligodendrocytes (MBP positive staining) compared to control: compound added at 4 div for two days, images at 6 div; for generation of "myelin rings" on the micropillar platform: OPCs plated on micropillar arrays
Excerpt: Using Axiovision software by Zeiss, we can automate the detection and quantification of the number of myelin rings without any of the confounding issues associated with the nanofibers (i.e. length of internodes, interfering cell processes, cell bodies, etc.). Essentially, oligodendrocyte precursor cells (OPCs) will be visualized as green rings whereas oligodendrocytes are indicated as red rings (FIG. 4C).
(A-C) Immunostaining for myelination by oligodendrocytes (red, MBP positive staining) surrounding micropillars. Oligodendrocytes were cultured on micropillars for total of 6 days in vitro (div) and received compounds known to enhance differentiation at 4 div for two days. […] Images were acquired at 6 div. Scale bar, 50 μm.

[2] = test system: purified oligodendroglia cocultured with purified neurons
Excerpt: In the cocultures, myelin internodes can be routinely identified by the “tube-like” structures (immunostained for myelin-specific proteins) formed by the oligodendrocytes. […] Overall, the coculture system recapitulates the timing of oligodendrocyte development and myelination in vivo and represents a powerful tool to validate compounds and factors that may both promote and inhibit oligodendroglial development. […] Additionally, the ability to quantify a functional readout for differentiation and myelination by oligodendrocytes, provides the unique opportunity to uncouple the axonal contribution on myelination.
Cultures were immunostained after 7 days in vitro and analyzed for myelin basic protein (red).

oligodendroglia = settings: polystyrene nanofibers, no axons
Description: The exquisite flexibility in the design of our nanofibers guarantees constant uniformity and density of fibers in the experimental design and any effects from compounds tested could be attributed solely to direct influences on oligodendroglia (FIG. 2), without confounding effects from neurons.
Nanofibers are patterned and deposited into a 24-well format and placed under an automated fluorescence microscope with incubation chamber. Upon addition of oligodendroglia and small molecules, cells cultured with the nanofibers can be analyzed for effects on proliferation, survival, differentiation, and myelination in real time. […]
To initiate a screen, a candidate list of known molecules and chemical inhibitors thought to play a role in promoting oligodendrocyte differentiation and myelination was compiled, and applied various FDA approved compounds in the treatment of psychiatric disorders. […] Additionally, the ability to quantify a functional readout for differentiation and myelination by oligodendrocytes, provides the unique opportunity to uncouple the axonal contribution on myelination.
Oligodendrocyte differentiation and myelination were examined on our nanofiber platform (a). […] Cultures were immunostained after 7 days in vitro and analyzed for myelin basic protein (red).

Row | SMILES | number of red "myelin rings" generated by oligodendrocytes (MBP positive staining) compared to control ([1]; 1 μM) | generation of "myelin rings" on the micropillar platform [1] | differentiation and myelination of neuronal axons ([2]; purified oligodendroglia with purified neurons) | oligodendrocyte differentiation and myelination (myelin basic protein immunostaining) ([2]; quetiapine fumarate 100 nM, 7 days in vitro, Oligodendrocyte-DRG cocultures) | differentiation of oligodendrocytes and myelination of the nanofibers (oligodendroglia) | number of red "myelin rings" generated by oligodendrocytes (MBP positive staining) compared to control ([1]; 30 ng/mL)
1 | OCCOCCN1CCN(C2=Nc3ccccc3Sc3ccccc32)CC1 [quetiapine fumarate] | increases | significantly enhanced | significantly enhances | significantly accelerated | greatly enhanced | –
2 | N[C@@H](Cc1cc(I)c(Oc2ccc(O)c(I)c2)c(I)c1)C(=O)O [thyroid hormone] | – | significantly enhanced | – | – | – | increases
